# Reference: patent publication US11771773B2, “Pharmaceutical preparation containing polyethylene gylcol loxenatide and preparation method thereof” (Jiangsu Hansoh Pharmaceutical Group Co., Ltd., priority 2016, dated 2023)
# Columns and labels:
# [1] = test system: type 2 diabetes db/db mice; conditions: injected subcutaneously once every three days
substance,measurement,setting,value
polyethylene glycol loxenatide,body weight,[1],reduced
same,efficacy compared with Exenatide injected subcutaneously twice a day,[1],comparable to that of Exenatide
same,fasting blood glucose,[1],significantly reduced
same,glucose tolerance,[1],improved
same,random blood glucose,[1],significantly reduced
same,serum fructosamine levels,[1],significantly reduced
same,glucose-dependent insulinotropic function,normal rats,Good glucose-dependent insulinotropic function
